Reference: patent US10100011B2, “Pentadienoyl piperidine derivative and use thereof” (Industry-Academic Cooperation Foundation, Yonsei University, priority 2014, dated 2018)

What was measured:
[1] = tested on: genes related to lipogenesis and AMPK in liver tissue; test: Gene (RT-PCR) and protein (Western blotting) expression in liver tissue of mice; type: in vivo, mouse; conditions: compound in high-fat diet, pattern similar to Chow group
Experimental: 1 ml of a TRIzol solution per 0.1 g of epididymal fat tissue was added to the pulverized tissue, followed by centrifuging at 4° C. and 12,000×g for 10 minutes. A supernatant was transferred into a new tube and then 200 μl of chloroform was added thereto, followed by vortexing. This process was repeated twice and then a supernatant was transferred into a new tube. Subsequently, isopropanol and the supernatant were mixed in a ratio of 1:1 and strongly shook ten times, followed by standing at room temperature for 10 minutes. Subsequently, centrifugation was carried out at 12,000×g and 4° C. for 10 minutes, followed by removing a supernatant and adding 1 ml of 70% ethanol to the remaining precipitate. Subsequently, centrifugation was carried out at 7,500×g and 4° C. for five minutes. Ethanol was removed and then the tube containing an RNA precipitate was dried at room temperature for five minutes. […] The concentrations of the extracted RNA samples were measured at wavelengths of 260 nm and 280 nm by means of a UV/VIS spectrophotometer (Beckman Coulter, DU730). […]
A predetermined amount of visceral fat or liver tissue was homogenized with liquid nitrogen and a lysis buffer in a mortar and then centrifuged at 13,000 rpm and 4° C. for 20 minutes. Subsequently, a middle layer was collected and subjected to protein quantification according to the Bradford method. […]

C57BL/6J mice [2] = test: Inflammatory cytokine concentrations in blood of mice fed high-fat diet (ELISA); type: in vivo, mouse; conditions: about 0.05% compound in high-fat diet, 10 weeks
Experimental: (§1) An obesity induction diet used in this experiment was a high-fat diet (HFD: 40% fat calories, 17 g of lard+3% corn oil/100 g diet), and the compositions of diets including the LJ-2501, LJ-2488, LJ-2495, LJ-2496 compounds were identical to that of HFD, except that each of the compounds was included in an amount of about 0.05% (Table 2). As a control drug, an anti-obesity drug, sibutramine (Sibut), was added in an amount of about 0.01% to the high-fat diet and a normal diet group (Chow) was fed with commercial rodent chow.
(§2) 5-week old 40 male C57BL/6J mice (Orient Bio., Korea) were fed with hard feed and accommodated in a laboratory environment for one week. Subsequently, in accordance with a randomized block method, the mice were randomly grouped into a normal diet group, a high-fat diet control group, two experimental substance groups, and […] and raised for a total of 10 weeks (n=8/group). Diets were supplied with water between 10 am and 11 am every day. An intake amount was measured every day and the body weights of the mice were measured every week. To prevent temporal weight change due to feed intake, feedboxes were removed and, after two hours, the body weights were measured. The experimental animals were fasted for 12 hours or more and then anesthetized with diethyl ether, followed by collecting blood, liver, and visceral adipose tissues (epididymal fat, perirenal fat, mesenteric fat, and retroperitoneal fat). The collected samples were washed with 0.1 M phosphate buffered saline (pH 7.4) and then weighed. Blood samples collected from abdominal aortas were centrifuged at 1000×g for 15 minutes, thereby separating plasma.
The concentrations of TNFα, MCP-1, IL-6, leptin, and insulin in plasma were measured according to an ELISA method using the Mouse Adipokine Magnetic Bead Panel kit (MADKMAG-71K, EMD Millipore Corporation, Mass., USA).

[3] = tested on: genes related to adipose tissue generation and thermogenesis in visceral fat tissue; test: Gene (RT-PCR) and protein (Western blotting) expression in visceral (epididymal) fat tissue of mice; type: in vivo, mouse; conditions: compound in high-fat diet
Experimental: 1 ml of a TRIzol solution per 0.1 g of epididymal fat tissue was added to the pulverized tissue, followed by centrifuging at 4° C. and 12,000×g for 10 minutes. A supernatant was transferred into a new tube and then 200 μl of chloroform was added thereto, followed by vortexing. This process was repeated twice and then a supernatant was transferred into a new tube. Subsequently, isopropanol and the supernatant were mixed in a ratio of 1:1 and strongly shook ten times, followed by standing at room temperature for 10 minutes. Subsequently, centrifugation was carried out at 12,000×g and 4° C. for 10 minutes, followed by removing a supernatant and adding 1 ml of 70% ethanol to the remaining precipitate. Subsequently, centrifugation was carried out at 7,500×g and 4° C. for five minutes. Ethanol was removed and then the tube containing an RNA precipitate was dried at room temperature for five minutes. The dried RNA pellet was dissolved in nuclease free water. The concentrations of the extracted RNA samples were measured at wavelengths of 260 nm and 280 nm by means of a UV/VIS spectrophotometer (Beckman Coulter, DU730). In addition, the extracted RNA samples were electrophoresed on an agarose gel to confirm the quality of the RNA samples.
The RNA samples extracted from epididymal fat tissue were subjected to reverse transcription using oligo dT primers and the Superscript reverse transcription enzyme (GIBCO BRL, Gaithersburg, Md., USA), thereby synthesizing cDNAs. Each of the synthesized cDNAs was used as a template and 5′ and 3′ flanking sequences of cDNA of each of genes to be amplified were used as primers, thereby performing PCR. 1 μl of each of amplified PCR products was electrophoresed on a 1% agarose gel and a DNA band was observed.
A predetermined amount of visceral fat or liver tissue was homogenized with liquid nitrogen and a lysis buffer in a mortar and then centrifuged at 13,000 rpm and 4° C. for 20 minutes. Subsequently, a middle layer was collected and subjected to protein quantification according to the Bradford method. 50 μg of a protein was electrophoresed on an SDS polyacryamide gel and then electro-blotted on hyperfilm PVDF. A reaction was carried out using a corresponding antibody and detection was performed using ECL.

C57BL/6J mice [4] = test: Body weight and visceral fat weight in mice fed high-fat diet; type: in vivo, mouse; conditions: about 0.05% compound in high-fat diet, 10 weeks
Experimental: as §1, §2

3T3L1 cells = test: Adipocyte differentiation inhibition in preadipocytes (Oil-red O staining); type: cell-based, mouse; conditions: Mus musculus, 3T3-L1, treated every two days during 14 days differentiation, Oil-red O O.D. 600 nm, read-out: adipocyte differentiation inhibition activity, EC50 value
Experimental: Preadipocytes, 3T3L1 cells, were aliquoted into a 12-well plate and cultured in a DMEM medium containing 1% penicillin-streptomycin, 1% nonessential amino acid, and 10% fetal bovine serum (FBS) in a 5% CO2 incubator at 37° C. until confluence. The 3T3L1 cells grown to confluence were cultured for two days in a medium containing 0.5 mM isobutyl-methylxanthine, 1 μM dexamethasone (MDI), and 1 μg/ml insulin, thereby being differentiated into adipocytes. Subsequently, the differentiated adipocytes were further cultured for two days in a DMEM medium including 1 μg/ml insulin, thereby being differentiated into mature adipocytes. Subsequently, the differentiated mature adipocytes were further cultured for 10 days while replacing a used DMEM medium with a new DMEM medium every two days. As a result, completely differentiated adipocytes were formed.
3T3-L1 cells were treated with each of a total of four novel compound types at different concentrations every two days from the first day of cell differentiation induction by addition of DMI. Each of the derivative compounds was dissolved in DMSO and then used. A negative control group including only DMSO was included in this experiment. Cell culture was carried out for 14 days. When differentiation was completed, a medium was removed and lipid droplets contained in differentiated adipocytes were stained. To stain the lipid droplets, cells were washed with phosphate buffered saline (PBS) twice and then fixed with 10% buffered neutral formalin for one hour, followed by washing with PBS once. Subsequently, 1 ml of Oil-red-O dye for staining lipid droplets red was fed into a 12-well plate and lipid droplets were stained for one hour, followed by washing with distilled water twice. To measure the concentration of neutral fat contained in the differentiated 3T3L1 cells, the stained lipid droplets were dissolved in 1 ml of isobutanol, followed by measuring an O.D value at 600 nm.

C57BL/6J mice [5] = test: Plasma lipid concentrations in mice fed high-fat diet; type: in vivo, mouse; conditions: about 0.05% compound in high-fat diet, 10 weeks
Experimental: as §1, §2
Using the aforementioned experimental animals raised for 10 weeks, the concentrations of a total of cholesterol, neutral fat, and glucose in plasma and lipid components in liver tissue were measured as follows. The concentrations of a total of cholesterol, neutral fat, and free fatty acid in plasma were respectively measured twice using a commercial measurement kit (Bio Clinical System).

[6] = RT-PCR, levels similar to Chow group

Question: What does the source list for `CSc1ccc(/C=C/C=C/C(=O)N2CCCCC2)cc1` [LJ-2501, (2E,4E)-5-(4-(methylthio)phenyl)-1-(piperine-1-yl)penta-2,4-diene-1-one]?
Answer: HFD-caused increase of expression of downstream genes of AMPK (LXRα, SREBP-1c, LPL, FAS, ACC) in liver tissue ([1]; RT-PCR): reversed; HFD-caused reduction of AMPK phosphorylation in liver tissue ([1]; Western blotting): reversed; blood IL-6 concentration, reduction compared to HFD (C57BL/6J mice [2]): 38%; blood MCP-1 concentration, reduction compared to HFD (C57BL/6J mice [2]): 22%; blood TNF-α concentration, reduction compared to HFD (C57BL/6J mice [2]): 25%; blood leptin concentration, reduction compared to HFD (C57BL/6J mice [2]): 25%; expression levels of NRF-1, COX2 and TFAM in visceral fat tissue ([3]; RT-PCR): increasing; gene expression levels of PGC-1α, SIRT1 and UCP1 in visceral adipose tissue compared to HFD [3, 6]: increased; mRNA expression of C/EBPα, PPARγ2 and target genes (CD36, FAS, leptin) in epididymal fat tissue compared to HFD [3, 6]: reduced; phosphorylation level of CREB proteins in visceral adipose tissue ([3]; Western blotting): increased; cumulative weight gain, reduction compared to high-fat diet control group (HFD) (C57BL/6J mice [4]): 60%; diet intake amount compared to HFD control group (C57BL/6J mice [4]): not greatly different; epididymal fat, perirenal fat, mesenteric fat and retroperitoneal fat weights compared to HFD (in words) (C57BL/6J mice [4]): significant reduction; total weight of visceral fats (four fat types), reduction compared to HFD (C57BL/6J mice [4]): 72%; visceral fat amount in abdominal section image compared to HFD (naked eye) (C57BL/6J mice [4]): remarkably reduced; EC50 (3T3L1 cells): 101 µM; plasma LDL+VLDL cholesterol concentration, reduction compared to HFD (C57BL/6J mice [5]): 27%; plasma free fatty acid concentration, reduction compared to HFD (C57BL/6J mice [5]): 69%; plasma neutral fat concentration, reduction compared to HFD (C57BL/6J mice [5]): 34%; plasma total cholesterol concentration, reduction compared to HFD (C57BL/6J mice [5]): 35%
